Data on four compounds can be found in patent US11649475B2, “Dioxetane compounds and their use for the detection of microorganisms” (NEMIS Technologies AG, priority 2018, dated 2023).

The subject of experiment [1] is phosphatidylinositol-specific phospholipase C (PI-PLC). The experiment is described as follows: Enzymatic assay of PI-PLC activity with Compound IIIa. It counts as biochemical. To be noted: for RLU: PBS pH 7.4, 1% v/v DMSO. Here is the method:
Varying concentrations of phosphatidylinositol-specific phospholipase C (PI-PLC) were added and luminescence was recorded at room temperature (Table 4). Assays were performed in a white microtiter plate with 0.25 mL total liquid volume.

In experiment [2] the test system is Escherichia coli ATCC 25922. Nature of the experiment: Luminescence of culture samples after addition of Compound IIIa. The conditions noted are these: E.c., inoculation density 10^5 CFU/mL, 6 h cultivation, 10 μM. It counts as cell-based. Here is the method: (§1) Similar cell concentrations of all strains were inoculated in triplicate test tubes with M52 broth. In addition, further dilutions of L.m. 2 cells in sterile saline were inoculated in triplicate test tubes. Sterile saline was added to negative control tubes. […] Final concentration of Compound IIIa was 10 μM, final concentration of dimethyl sulfoxide was 1% v/v. Light emission was recorded with a plate reader equipped with a luminescence detection system. […] It was possible to detect 10^3 CFU/mL of Listeria monocytogenes after 6 h of incubation as indicated by a signal-to-noise ratio of 2 relative to sterile controls.

In experiment [3] the test system is Listeria innocua (6a) ATCC 33090. The description is as above. It counts as cell-based. To be noted: L.i., inoculation density 10^5 CFU/mL, 6 h cultivation, 10 μM. Here is the method: as §1
Experiment [4] has as its system Listeria monocytogenes (4b) ATCC 19115. Described as above. To be noted: 6 h cultivation, 10 μM; for Mean RLU (n = 3): 16-20 min after addition. It counts as cell-based. Here is the method: as §1
The subject of experiment [5] is Listeria monocytogenes ATCC 7644. The description is as above. It counts as cell-based. To be noted: L.m. 1, inoculation density 10^5 CFU/mL, 6 h cultivation, 10 μM. Here is the method: as §1
The subject of experiment [6] is Citrobacter freundii ATCC 8090. Nature of the experiment: Luminescence of culture samples after addition of Compound IIa. To be noted: C.f., inoculation density 10^5 CFU/mL, 6 h cultivation, 10 μM. It counts as cell-based. The source says: (§2) Citrobacter freundii ATCC 8090 (C.f., […] negative), Escherichia coli ATCC 25922 (E.c., […] negative), Salmonella Typhimurium (D) ATCC […]., Salmonella enterica ssp. I ser. Typhimurium, […] positive), Salmonella Enteritidis (D) ATCC […]. 1, Salmonella enterica ssp. enterica ser. Enteritidis, […] positive) and Salmonella Enteritidis RKI 05/[…]. 2, Salmonella enterica ssp. enterica ser. […] Similar cell concentrations of all strains were inoculated in triplicate test tubes with Nutrient Broth. […] Sterile saline was added to negative control tubes. […] Final concentration Compound IIa was 10 μM, final concentration of dimethyl sulfoxide was […]. Light emission was recorded with a plate reader equipped with a luminescence detection system.

Experiment [7] deals with Escherichia coli ATCC 25922. Described as above. It counts as cell-based. The conditions noted are these: E.c., inoculation density 10^5 CFU/mL, 6 h cultivation, 10 μM.
Excerpt: as §2

Experiment [8] concerns Salmonella Typhimurium (D) ATCC 14028. Described as above. It counts as cell-based, Salmonella enterica ssp. I ser. Typhimurium. To be noted: S.T., inoculation density 10^5 CFU/mL, 6 h cultivation, 10 μM.
Excerpt: as §2

For experiment [9], the system named is Salmonella Enteritidis (D) ATCC 13076. The experiment is described as above. It counts as cell-based, Salmonella enterica ssp. enterica ser. Enteritidis. To be noted: S.E. 1, inoculation density 10^5 CFU/mL, 6 h cultivation, 10 μM.
Excerpt: as §2

The subject of experiment [10] is Salmonella Enteritidis RKI 05/07992. The description is as above. It counts as cell-based, Salmonella enterica ssp. enterica ser. Enteritidis. To be noted: for Signal to noise ratio (to sterile) / Mean RLU (n = 3): 6 h cultivation, 10 μM; for Mean RLU (n = 3): 27-30 min after addition.
Excerpt: as §2

Experiment [11] shares this test system. The experiment is described as follows: Limit of detection of Salmonella enterica, Compound IIa versus MUCAP. It counts as cell-based. To be noted: Compound IIa 10 μM versus MUCAP 0.1 mM, PBS, 15% DMSO.
Method: Salmonella Enteritidis RKI 05/07992 was cultivated in Nutrient Broth (5 g/I peptone, 5 g/l NaCl, 2 g/L yeast extract, 1 g/l beef extract, pH 7.4) for 20 h (37° C., 150 rpm) and then serially diluted in phosphate buffered saline. Cell suspensions were mixed 1:1 v/v with phosphate buffered saline containing dimethyl sulfoxide (final concentration in assay 15%) and either Compound IIa (final concentration 10 μM) or 4-Methylumbelliferyl caprylate (MUCAP, final concentration 0.1 mM). Assays were performed in microplates, total liquid volume was 0.2 mL. Light emission and fluorescence (excitation 360 nm, emission 455 nm) were recorded with a SpectraMax M5 (Molecular Devices, Sunnyvale, Calif., USA) plate reader. Cell concentration of undiluted culture was estimated from optical density (600 nm).
The subject of the next experiment is pig liver esterase. Nature of the experiment: Enzymatic assay of pig liver esterase activity with Compound IIa. The conditions noted are these: 62.5 μM, PBS pH 7.4, 10% v/v DMSO, 20 min measurement period.
The test system of another experiment is glucose. Nature of the experiment: Detection of glucose in Escherichia coli culture supernatant with compound VIa and glucose oxidase. It counts as biochemical. The conditions noted are these: 40 μM compound VIa in HEPES buffer pH 7.0, 1 mg/mL glucose oxidase, 20 min. Here is the method:
Cells were separated from culture supernatant by centrifugation (13'000×g, 2 min). […] A second negative control also contained 5 mM glucose, but no glucose oxidase. Culture supernatant with and without glucose (0.1 mL) was mixed in a white microtiter plate with 0.1 mL of HEPES buffer (100 mM, pH 7.0) containing 40 μM of compound VIa, reacting with hydrogen peroxide) and 1 mg/mL commercially available glucose oxidase from Aspergillus niger. […] Presence of glucose lead to continuously increasing luminescence when compound Via and glucose oxidase were also present.

In experiment [12] the test system is Methicillin-resistant Staphylococcus aureus ATCC 33592 (MRSA). The experiment is described as follows: Luminescence development in cultures with and without oxacillin, Compound IVa. It counts as cell-based. The conditions noted are these: oxacillin 20 mg/L, 6 h, 10 μM compound IVa as indicator. Here is the method: (§3) Methicillin-resistant Staphylococcus aureus ATCC 33592 (MRSA), a strain which is resistant to penicillin derivatives such as methicillin and oxacillin, and methicillin-susceptible Staphylococcus aureus ATCC 29213 (MSSA) were cultivated overnight at 37° C. in nutrient broth (5 g/L peptone, 5 g/L sodium chloride, 2 g/L yeast extract, 1 g/L meat extract, pH 7.4) and diluted in sterile saline. MRSA and MSSA strains were inoculated at approx. 10^6 CFU/mL in nutrient broth containing compound IVa at a final concentration of 10 μM. For each strain, one culture was supplemented with oxacillin (20 mg/L final concentration) and one culture was left without antibiotics. Tube cultures were incubated at 37° C. and 150 rpm. A sterile control (nutrient broth with 10 μM of compound IVa) was incubated in parallel. Luminescence of culture samples (0.2 mL in a white microtiter plate) was recorded at regular intervals for 6 h with a SpectraMax M5 plate reader (FIG. 4: Luminescence development in cultures of MRSA and MSSA in the presence and absence of the antibiotic oxacillin). […] Growing and non-growing cultures could be distinguished after 1 h of incubation.

Experiment [13] relates to methicillin-susceptible Staphylococcus aureus ATCC 29213 (MSSA). Described as above. It counts as cell-based. The conditions noted are these: oxacillin 20 mg/L, 6 h, 10 μM compound IVa as indicator. Here is the method: as §3
Setting [14] is: L.m. 2, inoculation density 10^2 CFU/mL.
Where [15] appears, read: L.m. 2, inoculation density 10^3 CFU/mL.
Where [16] appears, read: L.m. 2, inoculation density 10^4 CFU/mL.
[17] abbreviates: L.m. 2, inoculation density 10^5 CFU/mL.
Setting [18] is: S.E. 2, inoculation density 10^1 CFU/mL.
[19] abbreviates: S.E. 2, inoculation density 10^2 CFU/mL.
Setting [20] is: S.E. 2, inoculation density 10^3 CFU/mL.
[21] abbreviates: S.E. 2, inoculation density 10^4 CFU/mL.
The mark [22] stands for this setting: S.E. 2, inoculation density 10^5 CFU/mL.

Method for pig liver esterase: The assay mix was pre-incubated for 20 min at room temperature, then 1:5 v/v of pig liver esterase solutions containing varying enzyme concentrations were added and luminescence was recorded for 20 min at room temperature with a SpectraMax M5 reader in luminescence mode. Assays were performed in a black microtiter plate with a total liquid volume of 0.25 mL.

Consider `COC(=O)/C=C/c1ccc(C2(OC)OOC23C2CC4CC(C2)CC3C4)c(Cl)c1OCc1ccc(OP(=O)(O)O[C@@H]2[C@H](O)[C@H](O)[C@@H](O)[C@H](O)[C@H]2O)cc1` (some centres unmarked) [Compound IIIa], for which the “Signal to noise ratio” value in [1] (PI-PLC added 5 · 10^−1 U/mL) came out at 862; in experiment [1] (PI-PLC added 5 · 10^−2 U/mL) it was 512; in experiment [1] (PI-PLC added 5 · 10^−3 U/mL) it was 148; in experiment [1] (PI-PLC added 5 · 10^−4 U/mL), 17. Moreover, the RLU in experiment [1] (PI-PLC added 5 · 10^−1 U/mL, 10 μM) is given as 60265 RLU; in [1] (PI-PLC added 5 · 10^−2 U/mL, 10 μM), 35822 RLU; in [1] (PI-PLC added 5 · 10^−3 U/mL, 10 μM) it was 10369 RLU; in experiment [1] (PI-PLC added 5 · 10^−4 U/mL, 10 μM), 1191 RLU. Moreover, the “Signal to noise ratio (to sterile)” value in experiment [2] is given as 0.5; in experiment [3], 2.3; in [4] (setting [14]) it was 0.9; in experiment [4] (setting [15]), 2.2; in experiment [4] (setting [16]), 17; in experiment [4] (setting [17]), 716. In experiment [5], the “Signal to noise ratio (to sterile)” value came to 832. The “Mean RLU (n = 3)” value is 7 RLU in experiment [2] (16-20 min after addition); 33 RLU in [3] (16-20 min after addition); 12 RLU in experiment [4] (setting [14]); 31 RLU in [4] (setting [15]); 242 RLU in experiment [4] (setting [16]); 10258 RLU in experiment [4] (setting [17]). Also, in experiment [5] (16-20 min after addition), the “Mean RLU (n = 3)” value came to 11913 RLU.
In the case of `CCCCCCCC(=O)Oc1ccc(COc2c(/C=C/C(=O)O)ccc(C3(OC)OOC34C3CC5CC(C3)CC4C5)c2Cl)cc1` (centres unmarked) [Compound IIa], the “Signal to noise ratio (to sterile)” value was 12 in [6]; 6 in experiment [7]; 283 in experiment [8]; 408 in experiment [9]; 2 in [10] (setting [18]); 9 in [10] (setting [19]). For the same compound, the “Signal to noise ratio (to sterile)” value in [10] (setting [20]) is 72; in experiment [10] (setting [21]), 275; in experiment [10] (setting [22]), 693. For the same compound, the “Mean RLU (n = 3)” value is given as 6480 RLU in experiment [6] (27-30 min after addition); 3504 RLU in experiment [7] (27-30 min after addition); 228202 RLU in [8] (27-30 min after addition); 158262 RLU in experiment [9] (27-30 min after addition); 1041 RLU in experiment [10] (setting [18]); 5100 RLU in [10] (setting [19]). The “Mean RLU (n = 3)” value in [10] (setting [20]) was determined as 40236 RLU; in experiment [10] (setting [21]) it was 154011 RLU; in experiment [10] (setting [22]), 387911 RLU. Also, the “detectable inoculation density of Salmonella Enteritidis” value in experiment [10] (after 6 h of incubation, signal-to-noise ratio of 2 relative to sterile controls) came to 10 CFU/mL. For the same compound, the “relation of PI-PLC concentration and maximal RLU” value in [1] (10 μM, 20 min measurement period) is “positive correlation over two orders of magnitude”. Moreover, the “limit of detection for Salmonella enterica, lower than with MUCAP” value in experiment [11] is on record as 625 fold. Also, in the experiment on pig liver esterase, the “relation of pig liver esterase concentration and maximal RLU” value is given as “positive linear correlation over two orders of magnitude”.
For the compound `COC1(c2ccc(/C=C/C(=O)O)c(B3OC(C)(C)C(C)(C)O3)c2)OOC12C1CC3CC(C1)CC2C3` (centres unmarked) [VIa], in the experiment with glucose, the “rate of increase of luminescence” value is given as “positive correlation with the glucose concentration”.
Regarding `Cc1onc(-c2ccccc2)c1C(=O)N[C@@H]1C(=O)N2[C@@H]1SC(C)(C)[C@@H]2C(=O)O` [oxacillin], the “growth by time course of luminescence intensity” value is “multiplied both in the presence and the absence of oxacillin” in experiment [12]; “showed an increase in luminescence only in the antibiotic-free culture” in experiment [13].
